Data taken from patent US20130030017A1, “QUINOLINE DERIVATIVES AS ANTIBACTERIAL AGENTS” (priority 2005, published 2013).
In brackets after ≈: the same amount, converted by molar mass.

Tests used:
Format in all cases: cell-based
[1] = tested on: Staphylococcus aureus (ATCC29213); assay: Microtitre plate assay, IC90 determination (STA 29213); details: 90% inhibitory concentration for bacterial growth, 37° C., resazurin fluorescence; for IC90 STA 29213: 24 hours; for IC90: Staphylococcus aureus, ATCC29213, 24 h
Procedure: (§1) The bacteria used in this study were grown overnight in flasks containing 100 ml Mueller-Hinton Broth (Becton Dickinson—cat. no. 275730) in sterile de-ionized water, with shaking, at 37° C. Stocks (0.5 ml/tube) were stored at −70° C. until use. Bacteria titrations were performed in microtiter plates and colony forming units (CFUs) were determined. In general, an inoculum level of approximately 100 CFUs was used for susceptibility testing.
(§2) Flat-bottom, sterile 96-well plastic microtiter plates were filled with 180 μl of sterile deionized water, supplemented with 0.25% BSA. Subsequently, stock solutions (7.8× final test concentration) of compounds were added in 45 μl volumes in column 2 Serial five-fold dilutions (45 μl in 180 μl) were made directly in the microtiter plates from column 2 to reach column 11. Untreated control samples with (column 1) and without (column 12) inoculum were included in each microtiter plate. Depending on the bacteria type, approximately 10 to 60 CFU per well of bacteria inoculum (100 TCID50), in a volume of 100 μl in 2.8× Mueller-Hinton broth medium, was added to the rows A to H, except column 12. The same volume of broth medium without inoculum was added to column 12 in row A to H. The cultures were incubated at 37° C. for 24 hours under a normal atmosphere (incubator with open air valve and continuous ventilation). At the end of incubation, one day after inoculation, the bacterial growth was quantitated fluorometrically. Therefore resazurin (0.6 mg/ml) was added in a volume of 20 μl to all wells 3 hours after inoculation, and the plates were re-incubated overnight. A change in colour from blue to pink indicated the growth of bacteria. The fluorescence was read in a computer-controlled fluorometer (Cytofluor Biosearch) at an excitation wavelength of 530 nm and an emission wavelength of 590 nm. The % growth inhibition achieved by the compounds was calculated according to standard methods. The IC90 (expressed in μg/ml) was defined as the 90% inhibitory concentration for bacterial growth.

[2] = tested on: Streptococcus pneumoniae (ATCC6305); assay: Microtitre plate assay, IC90 determination (SPN 6305); details: 90% inhibitory concentration for bacterial growth, 37° C., resazurin fluorescence; for IC90 SPN 6305: 24 hours; for IC90: Streptococcus pneumoniae, ATCC6305, 24 h
Procedure: as §1, §2

[3] = tested on: Pseudomonas aeruginosa (ATCC27853); assay: Microtitre plate assay, IC90 determination (PAE 27853); details: 90% inhibitory concentration for bacterial growth, 37° C., resazurin fluorescence; for IC90 PAE 27853: 24 hours; for IC90: Pseudomonas aeruginosa, ATCC27853, 24 h
Procedure: as §1, §2

[4] = tested on: Enterococcus faecalis (ATCC29212); assay: Microtitre plate assay, IC90 determination (EFA 29212); details: 90% inhibitory concentration for bacterial growth, 37° C., resazurin fluorescence; for IC90 EFA 29212: 24 hours; for IC90: Enterococcus faecalis, ATCC29212, 24 h
Procedure: as §1, §2

[5] = tested on: Streptococcus pyogens (ATCC8668); assay: Microtitre plate assay, IC90 determination (SPY 8668); details: 90% inhibitory concentration for bacterial growth, 37° C., resazurin fluorescence; for IC90 SPY 8668: 24 hours; for IC90: Streptococcus, ATCC8668, 24 h
Procedure: as §1, §2

IC90 STA 29213 [1] [µg/mL]	IC90 SPN 6305 [2] [µg/mL]	IC90 PAE 27853 [3] [µg/mL]	IC90 EFA 29212 [4] [µg/mL]	IC90 SPY 8668 [5] [µg/mL]	IC90 [3] [µg/mL]	IC90 [4] [µg/mL]	IC90 [5] [µg/mL]	IC90 [1] [µg/mL]	IC90 [2] [µg/mL]	Structure (SMILES)
6.0 (≈ 9.96 µM)	0.5 (≈ 0.83 µM)	–	–	–	–	–	–	–	–	COc1nc2ccc(Br)cc2cc1C(c1ccccc1)C(O)(CCc1ccc(Cl)c(Cl)c1)CCN(C)C (racemic) [Compound 57]
–	–	–	–	–	2.1 (≈ 3.51 µM)	37.7 (≈ 63 µM)	1.9 (≈ 3.18 µM)	9.5 (≈ 15.9 µM)	0.5 (≈ 0.836 µM)	COc1ccccc1CCC(O)(CCN(C)C)C(c1ccc(Cl)cc1)c1cc2cc(Br)ccc2nc1OC (centres unmarked) [Compound 88]
1.8 (≈ 3.18 µM)	2.3 (≈ 4.07 µM)	1.8 (≈ 3.18 µM)	1.8 (≈ 3.18 µM)	1.8 (≈ 3.18 µM)	–	–	–	–	–	COc1nc2ccc(Br)cc2cc1C(c1cccc(C)c1)C(O)(CCc1ccc(F)cc1)CCN(C)C (centres unmarked) [Compound 82]
7.4 (≈ 12.6 µM)	1.5 (≈ 2.56 µM)	1.9 (≈ 3.24 µM)	9.3 (≈ 15.9 µM)	1.9 (≈ 3.24 µM)	–	–	–	–	–	COc1nc2ccc(Br)cc2cc1C(c1ccc(Cl)cc1)C(O)(CCc1cccc(F)c1)CCN(C)C (centres unmarked) [Compound 78]
3.0 (≈ 4.98 µM)	3.4 (≈ 5.64 µM)	–	–	–	–	–	–	–	–	COc1nc2ccc(Br)cc2cc1C(c1ccc(Cl)cc1)C(O)(CCc1ccc(Cl)cc1)CCN(C)C (centres unmarked) [Compound 75]
7.1 (≈ 12.6 µM)	–	8.0 (≈ 14.2 µM)	8.9 (≈ 15.8 µM)	4.0 (≈ 7.1 µM)	–	–	–	–	1.8 (≈ 3.19 µM)	COc1ccc(C(c2cc3cc(Br)ccc3nc2OC)C(O)(CCc2ccccc2)CCN(C)C)cc1 (centres unmarked) [Compound 73]
8.3 (≈ 15.9 µM)	10.4 (≈ 20 µM)	–	–	–	–	–	–	–	–	COc1nc2ccc(-c3ccco3)cc2cc1C(c1ccccc1)C(O)(CCc1ccccc1)CCN(C)C (racemic) [Compound 62]
41.2 (≈ 70.8 µM)	–	–	–	–	–	–	–	–	2.1 (≈ 3.61 µM)	COc1nc2ccc(Br)cc2cc1C(c1ccc(Cl)cc1)C(O)(CCc1ccc(C)cc1)CCN(C)C (centres unmarked) [Compound 86]

Second part, the molecule before the results:

Structure (SMILES)	IC90 STA 29213 [1] [µg/mL]	IC90 SPN 6305 [2] [µg/mL]	IC90 PAE 27853 [3] [µg/mL]	IC90 EFA 29212 [4] [µg/mL]	IC90 SPY 8668 [5] [µg/mL]	IC90 [3] [µg/mL]	IC90 [4] [µg/mL]	IC90 [5] [µg/mL]	IC90 [1] [µg/mL]	IC90 [2] [µg/mL]
COc1nc2ccccc2cc1C(c1ccccc1)C(O)(CCc1ccccc1)CCN(C)C (racemic) [Compound 13]	36.1 (≈ 79.4 µM)	4.1 (≈ 9.02 µM)	–	–	–	–	–	–	–	–
COc1nc2ccc(Br)cc2cc1C(c1ccccc1)C(O)(CCc1cccc(F)c1)CCN(C)C (racemic) [Compound 48]	1.7 (≈ 3.08 µM)	2.2 (≈ 3.99 µM)	43.8 (≈ 79.4 µM)	43.8 (≈ 79.4 µM)	43.8 (≈ 79.4 µM)	–	–	–	–	–
COc1nc2ccc(Br)cc2cc1C(c1ccccc1)C(O)(CCN(C)C)Cc1cccc2ccccc12 (centres unmarked) [Compound 42]	9.0 (≈ 15.8 µM)	2.3 (≈ 4.04 µM)	–	–	–	10.1 (≈ 17.7 µM)	22.7 (≈ 39.9 µM)	4.5 (≈ 7.9 µM)	–	–
COc1nc2ccc(Br)cc2cc1C(c1ccccc1)C(O)(CCc1ccc(F)cc1)CCN(C)C (centres unmarked) [Compound 26]	4.4 (≈ 7.98 µM)	2.0 (≈ 3.63 µM)	1.7 (≈ 3.08 µM)	1.7 (≈ 3.08 µM)	1.7 (≈ 3.08 µM)	–	–	–	–	–
COc1nc2ccc(Br)cc2cc1C(c1ccccc1)C(O)(CCc1ccc(F)cc1)CCN(C)C (racemic) [Compound 49]	11.0 (≈ 19.9 µM)	2.2 (≈ 3.99 µM)	43.8 (≈ 79.4 µM)	43.8 (≈ 79.4 µM)	43.8 (≈ 79.4 µM)	–	–	–	–	–
CN(C)CCC(O)(CCc1ccccc1)C(c1ccc(Cl)cc1)c1cc2cc(Br)ccc2nc1N(C)C (centres unmarked) [Compound 33]	–	–	–	–	–	1.8 (≈ 3.1 µM)	1.8 (≈ 3.1 µM)	1.5 (≈ 2.58 µM)	1.8 (≈ 3.1 µM)	0.8 (≈ 1.38 µM)
COc1nc2ccc(Br)cc2cc1C(c1ccccc1)C(O)(CCc1cccc(F)c1)CCN(C)C (racemic) [Compound 47]	43.8 (≈ 79.4 µM)	8.7 (≈ 15.8 µM)	–	–	–	–	–	–	–	–
COc1nc2ccc(Br)cc2cc1C(c1ccccc1)C(O)(CCc1ccc(C(F)(F)F)cc1)CCN(C)C (racemic) [Compound 46]	1.9 (≈ 3.16 µM)	0.5 (≈ 0.831 µM)	1.9 (≈ 3.16 µM)	1.9 (≈ 3.16 µM)	1.9 (≈ 3.16 µM)	–	–	–	–	–
CCOCCOCCOc1nc2ccc(Br)cc2cc1C(c1ccccc1)C(O)(CCc1ccccc1)CCN(C)C (centres unmarked) [Compound 44]	22.6 (≈ 35.6 µM)	4.5 (≈ 7.08 µM)	4.5 (≈ 7.08 µM)	10.1 (≈ 15.9 µM)	8.0 (≈ 12.6 µM)	–	–	–	–	–
COc1nc2ccc(Br)cc2cc1C(c1ccccc1)C(O)(CCc1ccc(C(C)C)cc1)CCN(C)C (centres unmarked) [Compound 23]	16.2 (≈ 28.1 µM)	0.3 (≈ 0.521 µM)	–	–	–	–	–	–	–	–
COc1nc2ccc(Br)cc2cc1C(c1ccccc1)C(O)(CCc1ccc(F)cc1)CCN(C)C (centres unmarked) [Compound 27]	1.7 (≈ 3.08 µM)	2.0 (≈ 3.63 µM)	–	–	–	–	–	–	–	–
